Results taken from patent US5300491A, “Treatment of protozoal infection” (priority 1992, dated 1994).
Bridge positions count the residues as written; N and C are the ends. Square brackets hold non-standard residues; d marks the D form. Peptide text beside a SMILES is read from it. * marks the point of attachment. Ileψ(thiazoline)Cys = CC[C@H](C)[C@H](N)C1=N[C@H](C(=O)*)CS1; dOrn = NCCC[C@@H](N)C(=O)O

Key:
Trichomonas vaginalis = Trichomonas vaginalis assay of other divalent metal salts of bacitracin (MIC); format: cell-based
Experimental: All isolates were treated with either bacitracin or zinc bacitracin.
Prior to being diluted with the medium, the bacitracins were initially solubilized in water to 250 mg/ml. The zinc salt was solubilized in acidified water (60 μl HC1/ml). Duplicate plates of each isolate were prepared. one set of plates was exposed to an aerobic environment; and, the second set was exposed to an anaerobic environment. An Oxoid HP 11 anaerobic gas chamber and BR 38 gas generating kit were used to produce the anaerobic environment.
The procedure of Example IV was repeated, substituting bacitracin salts of the following metals for zinc bacitracin: nickel, cadmium, cobalt, manganese, copper and iron. The MLCs of the bacitracin salts were out of range. However, the MICs indicate that, with the exception of ferrous bacitracin, complexation with a divalent metal salt enhanced the activity of bacitracin.

[1] = system: intestinal amoebic infections; conditions: cited from earlier work
[2] = system: E. histolytica axenic cultures (NIH:200); test: Axenic culture study of E. histolytica (NIH:200), cell number reduction; format: cell-based, Entamoeba histolytica
Experimental: Axenic cultures are isolates of amoeba which have been adapted for growth in the absence of bacteria, i.e. they comprise sterile cultures. E. histolytica axenic cultures (NIH:200) were maintained according to the method of Diamond, J. Parasitol. 54, 1047-56 (1968) in TP-S-1 medium modified by replacing the vitamin solution with 2.5% NCTC 135. […] Amoebae were harvested by cooling tubes at 4° C. for 20 minutes in an ice-bath prior to centrifugation at 1,000 rpm for 8 minutes at 4° C. Assays were performed over 36-48 hours, rather than the 24 hour period used for xenic cultures, due to the more extended division time of axenic cultures. All assays were performed in triplicate.

Tritrichomonas gallinae = Tritrichomonas gallinae assay (MLC); format: cell-based; conditions: isolate GH85
Experimental: A single T. gallinae isolate was collected and treated with bacitracin or zinc bacitracin in accordance with the procedure of Example IV. Duplicate plates of the isolate were prepared. one plate was exposed to an aerobic environment. The second plate was exposed to an anaerobic environment.

[3] = system: human peripheral lymphocytes; conditions: cited from earlier work
[4] = system: histidine auxotrophs of Salmonella typhimurium; conditions: absence and presence of a rat liver activating system; cited from earlier work
spleen cells of rats = conditions: rat, in vivo; cited from earlier work
Cryptosporidium parvum = format: in vivo, Human
Description: The patient was a child, weighing approximately 30 kg. For years, the patient had suffered from moderate diarrhea. Prior to being treated with zinc bacitracin, the patient's stool repeatedly tested positive for intestinal Cryptosporidia. […] The patient received sulfonamide and cefalexin for the influenza during the hiatus. The zinc bacitracin treatment resumed approximately one month later and continued for two weeks thereafter.
After the treatment period, it was observed that the drug was well-tolerated by the patient.

E. histolytica = test: Amoebiasis clinical study; format: in vivo, Human
Experimental: Cysts and trophozoites of E. histolytica were detected initially by wet preparation screening of faeces, and later confirmed by the formal-ether technique. Full parasitological cure was based upon the presentation of 1-2 negative stool samples within one week post treatment.
In a dose-effect segment of the study, two groups of symptomatic E. histolytica cyst or trophozoite passers attending an outpatient clinic for abdominal pains were treated for either ten or five days.
In a dose-duration study, three groups of patients were observed: Group 1 - symptomatic cyst and trophozoite passers; Group 2 - dysenteric patients with bloody diarrheas; and, Group 3 - asymptomatic cyst passers.

G. lamblia = G. lamblia clinical study; format: in vivo, Human; conditions: for patients responding: 200,000 IU daily as tablets for ten days
Description: Based upon this dosage, 6 of the ten metronida-zole-resistant patients in Sweden responded to this regime. In addition, all of the 11 non-selected patients in Romania responded to this regime. Eight of these 11 non-selected patients remained clear of infection for the length of the study.

[5] = cited from earlier work
mouse lymphoma cell = conditions: cited from earlier work
[6] = span depending upon culture conditions
[7] = span depending upon culture conditions, converted from IU/ml
[8] = Group 1, 9 patients treated for two days
[9] = Group 1, 12 patients treated for 3 days
[10] = Table 5 dose-effect study, symptomatic cyst & trophozoite passers, 100,000 I.U. daily for 5 days, 5 patients
[11] = Table 5 dose-effect study, symptomatic cyst & trophozoite passers, 100,000 I.U. daily for 10 days, 9 patients
[12] = Table 6 dose-duration study, Group 1 symptomatic cyst and trophozoite passers, 1 day, 2 patients
[13] = Table 6 dose-duration study, Group 1 symptomatic cyst and trophozoite passers, 2 days, 9 patients
[14] = Table 6 dose-duration study, Group 1 symptomatic cyst and trophozoite passers, 3 days, 12 patients
[15] = Table 6 dose-duration study, Group 1 symptomatic cyst and trophozoite passers, 5 days, 5 patients
[16] = Table 7 dose-duration study, Group 2 dysentery cases, 3 days, 5 patients
[17] = Table 8 dose-duration study, Group 3 asymptomatic cyst passers, 3 days, 9 patients
[18] = Table 8 dose-duration study, Group 3 asymptomatic cyst passers, 5 days, 9 patients
[19] = 11 non-selected patients in Romania

Compound: CC[C@H](C)[C@H](N)C1=N[C@H](C(=O)N[C@@H](CC(C)C)C(=O)N[C@H](CCC(=O)O)C(=O)N[C@H](C(=O)N[C@H]2CCCCNC(=O)[C@H](CC(N)=O)NC(=O)[C@@H](CC(=O)O)NC(=O)[C@H](Cc3cnc[nH]3)NC(=O)[C@@H](Cc3ccccc3)NC(=O)[C@H]([C@@H](C)CC)NC(=O)[C@@H](CCCN)NC2=O)[C@@H](C)CC)CS1 [Bacitracin, reference compound] ({Ileψ(thiazoline)Cys}-L[dE]IK[dOrn]I[dF]H[dD]N; lactam 4-C)
- MIC (Trichomonas vaginalis; T. vaginalis isolate 1910): 10000 µg/mL
- MIC (Trichomonas vaginalis; T. vaginalis isolate UCH1): 10000 µg/mL
- parasitological cure ([1]; 51 patients, 10-20 days, 40,000 to 160,000 units): 66%
- cure rate ([1]; 100,000 I.U. daily over ten days): < 100%
- Cell number reduction compared to controls ([2]; axenic culture, 2.5 mg/ml): 76.4%
- Cell number reduction compared to controls ([2]; axenic culture, 5 mg/ml): 92.3%
- Cell number reduction compared to controls ([2]; axenic culture, 10 mg/ml): 97.7%
- Cell number reduction compared to controls ([2]; axenic culture, 15 mg/ml): 99.9%
- killing of amoeba ([2]; axenic culture, 20 mg/ml, 48 hours): All amoeba were killed
- MLC (Tritrichomonas gallinae; aerobic): 2000 IU/ml
- MLC (Tritrichomonas gallinae; anaerobic): 1500 IU/ml
- MLC (Tritrichomonas gallinae; [6]): 1,500-2,000 IU/ml
- MLC (Tritrichomonas gallinae; [7]): 21.43 to 28.57 mg/mL

Compound: Zinc bacitracin
- damage to chromosomal structure [3]: did not induce any damage to the chromosomal structure
- MIC (Trichomonas vaginalis; T. vaginalis isolate 1910): 2500 to 5000 µg/mL
- MIC (Trichomonas vaginalis; T. vaginalis isolate UCH1): 2500 µg/mL
- mutagenic potential [4]: devoid of mutagenic potential
- nucleoid sedimentation velocity (spleen cells of rats): Only a small reduction in nucleoid sedimentation velocity
- stool parasites over the course of the treatment period (Cryptosporidium parvum; child, 30,000 units thrice daily, 8 days and later two weeks): No stool parasites were detected
- tolerability (Cryptosporidium parvum; human, in vivo): well-tolerated
- stool test after end of treatment (Cryptosporidium parvum; one week after the final discontinuation of treatment): began to once again test positive for intestinal cryptosporidia
- cure (E. histolytica; 100,000 I.U. daily for 3-5 days): 100%
- cure rate (E. histolytica; [8]): 55%
- relapse rate (E. histolytica; [8]): 60%
- patients relapsed (at days 6 and 10) (E. histolytica; [9]): 16%
- primary cure rate (E. histolytica; [9]): 100%
- treatment outcome (E. histolytica; Group 1, two patients treated for 1 day): without success
- subjects showing parasites in their stools again after two weeks (E. histolytica; Group 3 asymptomatic cyst passers, five-day regimen, 9 subjects): 44%
- Number Relapsing (E. histolytica; [10]): 0
- Number Responding (E. histolytica; [10]): 5
- Number Relapsing (E. histolytica; [11]): 0
- Number Responding (E. histolytica; [11]): 9
- Number Relapsing (E. histolytica; [12]): 1
- Number Responding (E. histolytica; [12]): 1
- Number Relapsing (E. histolytica; [13]): 3
- Number Responding (E. histolytica; [13]): 5
- Number Relapsing (E. histolytica; [14]): 2
- Number Responding (E. histolytica; [14]): 12
- Number Relapsing (E. histolytica; [15]): 1
- Number Responding (E. histolytica; [15]): 5
- Number Relapsing (E. histolytica; [16]): 1
- Number Responding (E. histolytica; [16]): 5
- Number Relapsing (E. histolytica; [17]): 2
- Number Responding (E. histolytica; [17]): 8
- Number Relapsing (E. histolytica; [18]): 4
- Number Responding (E. histolytica; [18]): 9
- side effects (E. histolytica; all patients of the amoebiasis clinical study, 100,000 I.U. daily): No side effects were reported
- cure rate (E. histolytica; dose-effect study, 9 patients treated for 10 days): 100%
- patients remaining clear of infection for the length of the study (G. lamblia; [19]): Eight
- patients responding (G. lamblia; [19]): 11
- patients responding (G. lamblia; ten metronidazole-resistant patients in Sweden): 6
- absorption from the gut ([5]; rat, in vivo, po): not absorbed from the gut
- levels in the livers ([5]; rat, in vivo, po): No detectable levels
- oral toxicity ([5]; rats, sub-chronic and chronic, feed levels up to 1,000 ppm): non-toxic
- Cell number reduction compared to controls ([2]; axenic culture, 1 mg/ml): 68.3%
- Cell number reduction compared to controls ([2]; axenic culture, 2 mg/ml): 90.6%
- Cell number reduction compared to controls ([2]; axenic culture, 5 mg/ml): > 99.5%
- concentration required for lethality in axenic as opposed to xenic amoeba cultures ([2]; axenic versus xenic): 2-3 times
- MLC (Tritrichomonas gallinae; aerobic): 250 IU/ml
- MLC (Tritrichomonas gallinae; anaerobic): 300 IU/ml
- MLC (Tritrichomonas gallinae; [6]): 250-300 IU/ml
- MLC (Tritrichomonas gallinae; [7]): 3.91 to 4.87 mg/mL
- mutation frequency at the TK gene locus (mouse lymphoma cell): no significant increase in the mutation frequency
